Measurements published in ChEMBL document CHEMBL5465560, “Selectivity Literature for EUbOPEN Chemogenomic Library” (2024).

What was measured:
[1] = target: Fibroblast growth factor receptor 1 (Homo sapiens, UniProt P11362); experiment: Selectivity interaction (KinomeScan (DiscoverX)) EUB0000092b FGFR1; conditions: at 10 µM
[2] = target: T1, G protein-coupled receptor kinase 3 (Homo sapiens) (UniProt P35626); experiment: Selectivity interaction (KinomeScan (DiscoverX)) EUB0001079a ADRBK2; conditions: at 1 µM
T1 sequence (whole entry): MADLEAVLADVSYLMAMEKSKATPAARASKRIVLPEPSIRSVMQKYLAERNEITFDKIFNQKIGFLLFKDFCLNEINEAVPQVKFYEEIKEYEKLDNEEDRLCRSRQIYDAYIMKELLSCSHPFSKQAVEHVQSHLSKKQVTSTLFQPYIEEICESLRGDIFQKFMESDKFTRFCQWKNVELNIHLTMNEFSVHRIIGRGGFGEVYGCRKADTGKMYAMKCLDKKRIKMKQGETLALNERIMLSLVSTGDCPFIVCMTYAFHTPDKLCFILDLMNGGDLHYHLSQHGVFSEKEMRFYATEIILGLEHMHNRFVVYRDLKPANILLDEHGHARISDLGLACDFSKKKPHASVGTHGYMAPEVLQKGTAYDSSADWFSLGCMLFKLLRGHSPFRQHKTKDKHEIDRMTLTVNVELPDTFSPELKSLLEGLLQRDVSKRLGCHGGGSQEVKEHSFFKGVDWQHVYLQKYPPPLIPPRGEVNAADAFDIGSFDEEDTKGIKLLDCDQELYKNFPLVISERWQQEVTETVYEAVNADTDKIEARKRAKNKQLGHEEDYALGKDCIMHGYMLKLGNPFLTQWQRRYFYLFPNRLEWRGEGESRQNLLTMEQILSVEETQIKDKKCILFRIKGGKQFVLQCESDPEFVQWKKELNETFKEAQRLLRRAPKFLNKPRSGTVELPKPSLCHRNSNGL

[3] = target: Serine/threonine-protein kinase PAK 6 (Homo sapiens) (UniProt Q9NQU5); experiment: Selectivity interaction (KinomeScan (DiscoverX)) EUB0001079a PAK6; conditions: at 1 µM
Chain of Serine/threonine-protein kinase PAK 6 (Homo sapiens) (Q9NQU5 whole entry, looked up): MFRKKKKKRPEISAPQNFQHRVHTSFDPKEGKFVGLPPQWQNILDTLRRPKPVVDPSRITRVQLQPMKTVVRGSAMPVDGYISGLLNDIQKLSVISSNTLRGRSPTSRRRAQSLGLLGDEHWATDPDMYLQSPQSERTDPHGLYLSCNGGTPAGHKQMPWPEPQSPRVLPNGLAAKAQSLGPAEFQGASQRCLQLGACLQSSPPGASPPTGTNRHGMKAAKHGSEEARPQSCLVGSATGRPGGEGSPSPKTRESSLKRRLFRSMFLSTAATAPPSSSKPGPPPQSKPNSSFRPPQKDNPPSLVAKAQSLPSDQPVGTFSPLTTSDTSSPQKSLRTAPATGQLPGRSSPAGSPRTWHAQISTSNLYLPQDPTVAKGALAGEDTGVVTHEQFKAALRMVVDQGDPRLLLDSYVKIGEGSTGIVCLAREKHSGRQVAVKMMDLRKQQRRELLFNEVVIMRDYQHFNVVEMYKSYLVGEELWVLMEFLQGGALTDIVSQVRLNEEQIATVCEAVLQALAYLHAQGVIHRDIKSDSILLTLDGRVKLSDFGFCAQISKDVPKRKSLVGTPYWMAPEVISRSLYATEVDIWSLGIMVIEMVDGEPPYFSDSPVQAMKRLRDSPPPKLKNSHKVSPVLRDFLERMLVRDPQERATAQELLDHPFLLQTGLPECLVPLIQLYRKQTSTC

[4] = target: T2, Protein kinase C iota type (Homo sapiens) (UniProt P41743); experiment: Selectivity interaction (Kinase panel (KiNativ target engagement assay in Jurkat cells)) EUB0001635a PRKCI; format: cell-based; conditions: Selectivity number of off-targets 0.0, Selectivity number of targets 233.0, Source Knowledge https://www.sciencedirect.com/science/article/pii/S2451945619300674?via%3Dihub, at 1 µM
T2 sequence (whole entry): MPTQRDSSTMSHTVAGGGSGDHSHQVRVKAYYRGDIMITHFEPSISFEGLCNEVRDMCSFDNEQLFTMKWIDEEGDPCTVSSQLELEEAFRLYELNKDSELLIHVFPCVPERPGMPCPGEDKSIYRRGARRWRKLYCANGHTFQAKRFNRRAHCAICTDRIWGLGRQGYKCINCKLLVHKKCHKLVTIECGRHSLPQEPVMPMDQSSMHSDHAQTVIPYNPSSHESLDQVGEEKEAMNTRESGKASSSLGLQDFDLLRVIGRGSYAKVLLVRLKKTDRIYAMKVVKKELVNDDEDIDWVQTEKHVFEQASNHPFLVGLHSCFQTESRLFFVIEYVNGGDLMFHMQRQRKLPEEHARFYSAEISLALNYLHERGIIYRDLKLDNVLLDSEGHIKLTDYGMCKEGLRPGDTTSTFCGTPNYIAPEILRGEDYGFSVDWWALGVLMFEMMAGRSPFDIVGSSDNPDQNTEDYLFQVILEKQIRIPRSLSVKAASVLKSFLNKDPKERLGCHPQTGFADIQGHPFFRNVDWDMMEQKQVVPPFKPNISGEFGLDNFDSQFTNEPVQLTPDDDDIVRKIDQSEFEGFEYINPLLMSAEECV

[5] = system: Epidermal growth factor receptor (Homo sapiens), P00533 [T790M]; experiment: (§1) Selectivity interaction (SelectScreen profiling (Invitrogen)) EUB0000607a EGFR; conditions: at 2 µM
Chain of Epidermal growth factor receptor (Homo sapiens), P00533 [T790M] (P00533 whole entry T790M): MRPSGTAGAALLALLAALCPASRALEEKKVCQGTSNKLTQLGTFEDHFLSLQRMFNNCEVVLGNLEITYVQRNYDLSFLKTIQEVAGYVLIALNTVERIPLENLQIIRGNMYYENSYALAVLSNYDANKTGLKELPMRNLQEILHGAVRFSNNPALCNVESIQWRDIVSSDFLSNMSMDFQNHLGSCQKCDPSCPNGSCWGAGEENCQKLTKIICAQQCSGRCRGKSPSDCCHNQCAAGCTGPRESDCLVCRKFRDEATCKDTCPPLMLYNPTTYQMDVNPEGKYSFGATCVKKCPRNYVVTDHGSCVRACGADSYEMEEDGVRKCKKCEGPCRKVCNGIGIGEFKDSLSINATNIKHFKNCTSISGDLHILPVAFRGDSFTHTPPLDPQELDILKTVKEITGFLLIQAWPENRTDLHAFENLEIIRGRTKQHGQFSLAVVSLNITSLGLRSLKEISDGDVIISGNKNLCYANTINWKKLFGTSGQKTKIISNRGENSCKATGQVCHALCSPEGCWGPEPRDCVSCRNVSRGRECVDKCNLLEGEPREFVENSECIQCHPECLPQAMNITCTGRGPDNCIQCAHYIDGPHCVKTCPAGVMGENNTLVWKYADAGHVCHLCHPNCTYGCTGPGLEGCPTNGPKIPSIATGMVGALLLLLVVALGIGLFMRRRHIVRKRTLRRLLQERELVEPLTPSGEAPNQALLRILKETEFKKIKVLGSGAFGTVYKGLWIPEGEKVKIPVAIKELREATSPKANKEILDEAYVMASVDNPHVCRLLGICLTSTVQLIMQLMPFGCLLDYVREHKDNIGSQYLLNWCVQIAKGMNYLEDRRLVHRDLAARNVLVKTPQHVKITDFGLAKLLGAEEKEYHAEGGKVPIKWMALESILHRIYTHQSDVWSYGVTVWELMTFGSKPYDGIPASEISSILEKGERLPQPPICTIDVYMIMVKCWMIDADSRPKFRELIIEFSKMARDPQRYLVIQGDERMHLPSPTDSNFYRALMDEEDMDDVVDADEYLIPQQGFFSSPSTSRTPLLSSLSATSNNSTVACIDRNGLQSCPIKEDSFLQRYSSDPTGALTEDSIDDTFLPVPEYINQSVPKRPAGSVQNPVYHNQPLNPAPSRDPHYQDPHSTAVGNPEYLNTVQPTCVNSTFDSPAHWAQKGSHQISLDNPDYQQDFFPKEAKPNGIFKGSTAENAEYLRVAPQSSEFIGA

[6] = target: Epidermal growth factor receptor (Homo sapiens, UniProt P00533); experiment: as §1; conditions: at 2 µM
[7] = system: Epidermal growth factor receptor (Homo sapiens), P00533 [L858R]; experiment: as §1; conditions: at 2 µM
[8] = target: T3, Serine/threonine-protein kinase DCLK1 (Homo sapiens) (UniProt O15075); experiment: Selectivity interaction (KinomeScan (DiscoverX)) EUB0000607a DCLK1; conditions: at 10 µM
T3 sequence (whole entry): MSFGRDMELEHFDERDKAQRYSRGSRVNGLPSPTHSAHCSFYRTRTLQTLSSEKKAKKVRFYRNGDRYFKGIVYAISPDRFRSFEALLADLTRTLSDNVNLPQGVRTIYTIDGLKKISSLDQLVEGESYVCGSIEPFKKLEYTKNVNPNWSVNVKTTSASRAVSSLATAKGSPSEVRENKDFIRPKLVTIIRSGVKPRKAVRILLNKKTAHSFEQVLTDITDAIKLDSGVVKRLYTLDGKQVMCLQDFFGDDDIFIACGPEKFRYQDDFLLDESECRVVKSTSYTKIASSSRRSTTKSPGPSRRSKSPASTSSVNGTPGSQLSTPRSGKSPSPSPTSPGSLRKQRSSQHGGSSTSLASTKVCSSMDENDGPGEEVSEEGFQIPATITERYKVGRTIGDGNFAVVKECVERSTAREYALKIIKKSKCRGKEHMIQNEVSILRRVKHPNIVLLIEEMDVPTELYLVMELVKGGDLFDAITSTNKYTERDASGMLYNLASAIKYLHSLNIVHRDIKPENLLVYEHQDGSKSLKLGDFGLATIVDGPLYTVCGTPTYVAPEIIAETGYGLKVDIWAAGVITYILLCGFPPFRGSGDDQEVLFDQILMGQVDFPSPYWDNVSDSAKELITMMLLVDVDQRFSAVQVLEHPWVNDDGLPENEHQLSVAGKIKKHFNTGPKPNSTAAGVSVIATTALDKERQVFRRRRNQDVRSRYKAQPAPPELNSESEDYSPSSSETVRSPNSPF

[9] = target: Dual specificity protein kinase CLK3 (Homo sapiens, UniProt P49761); experiment: Selectivity interaction (Ambit KINOMEscan and KiNATiv profiling in Jurkat cells) EUB0000090b CLK3; format: cell-based; conditions: at 1 µM
[10] = target: Myosin-IIIa (Homo sapiens) (UniProt Q8NEV4); experiment: Selectivity interaction (Ambit KINOMEscan and KiNATiv profiling in Jurkat cells) EUB0000090b MYO3A; format: cell-based; conditions: at 1 µM
Chain of Myosin-IIIa (Homo sapiens) (Q8NEV4 whole entry): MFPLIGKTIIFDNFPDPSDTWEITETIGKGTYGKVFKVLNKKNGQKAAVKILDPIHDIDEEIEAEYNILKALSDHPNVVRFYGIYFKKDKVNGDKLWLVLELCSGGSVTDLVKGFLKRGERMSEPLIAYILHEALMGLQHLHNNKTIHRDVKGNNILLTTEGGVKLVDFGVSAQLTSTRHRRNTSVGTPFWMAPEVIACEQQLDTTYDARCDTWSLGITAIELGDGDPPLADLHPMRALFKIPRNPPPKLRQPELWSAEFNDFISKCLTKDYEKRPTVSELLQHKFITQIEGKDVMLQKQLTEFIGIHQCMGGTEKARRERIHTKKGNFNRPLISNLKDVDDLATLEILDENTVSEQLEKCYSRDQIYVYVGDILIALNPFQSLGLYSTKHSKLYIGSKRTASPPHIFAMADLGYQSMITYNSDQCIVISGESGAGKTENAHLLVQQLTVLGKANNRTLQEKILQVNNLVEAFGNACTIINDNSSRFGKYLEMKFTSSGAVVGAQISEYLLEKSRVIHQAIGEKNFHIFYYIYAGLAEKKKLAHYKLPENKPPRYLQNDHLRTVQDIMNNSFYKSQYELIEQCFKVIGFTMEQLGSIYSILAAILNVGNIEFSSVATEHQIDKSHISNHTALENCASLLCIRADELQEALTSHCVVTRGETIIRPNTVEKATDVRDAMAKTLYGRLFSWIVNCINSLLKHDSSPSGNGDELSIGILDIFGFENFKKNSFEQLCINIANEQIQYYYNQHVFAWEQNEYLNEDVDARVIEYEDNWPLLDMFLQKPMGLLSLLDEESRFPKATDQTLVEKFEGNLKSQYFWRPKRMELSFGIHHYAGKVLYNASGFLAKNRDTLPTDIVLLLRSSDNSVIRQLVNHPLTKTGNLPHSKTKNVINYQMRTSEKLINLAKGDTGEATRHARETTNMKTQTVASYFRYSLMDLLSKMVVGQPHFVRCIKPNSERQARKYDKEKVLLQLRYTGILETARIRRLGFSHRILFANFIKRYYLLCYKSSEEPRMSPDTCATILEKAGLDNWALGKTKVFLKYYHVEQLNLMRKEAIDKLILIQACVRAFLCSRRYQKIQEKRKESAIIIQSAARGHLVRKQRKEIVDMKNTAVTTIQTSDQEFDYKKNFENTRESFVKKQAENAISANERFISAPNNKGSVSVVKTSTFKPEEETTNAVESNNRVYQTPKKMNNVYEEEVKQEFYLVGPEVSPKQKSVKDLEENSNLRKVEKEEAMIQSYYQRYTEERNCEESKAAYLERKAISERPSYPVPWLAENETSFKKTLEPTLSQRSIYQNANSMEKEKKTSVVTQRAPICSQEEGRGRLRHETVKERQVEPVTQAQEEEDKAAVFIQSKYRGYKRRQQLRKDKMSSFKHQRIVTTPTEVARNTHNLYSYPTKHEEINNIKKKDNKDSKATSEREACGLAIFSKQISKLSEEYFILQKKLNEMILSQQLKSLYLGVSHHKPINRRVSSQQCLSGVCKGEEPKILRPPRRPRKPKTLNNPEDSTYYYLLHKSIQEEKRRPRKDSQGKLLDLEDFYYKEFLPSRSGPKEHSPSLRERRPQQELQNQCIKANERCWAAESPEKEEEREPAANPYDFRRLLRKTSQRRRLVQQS

[11] = target: N-lysine methyltransferase SMYD2 (Homo sapiens) (UniProt Q9NRG4); conditions: at 10 µM
Chain of N-lysine methyltransferase SMYD2 (Homo sapiens) (Q9NRG4 whole entry): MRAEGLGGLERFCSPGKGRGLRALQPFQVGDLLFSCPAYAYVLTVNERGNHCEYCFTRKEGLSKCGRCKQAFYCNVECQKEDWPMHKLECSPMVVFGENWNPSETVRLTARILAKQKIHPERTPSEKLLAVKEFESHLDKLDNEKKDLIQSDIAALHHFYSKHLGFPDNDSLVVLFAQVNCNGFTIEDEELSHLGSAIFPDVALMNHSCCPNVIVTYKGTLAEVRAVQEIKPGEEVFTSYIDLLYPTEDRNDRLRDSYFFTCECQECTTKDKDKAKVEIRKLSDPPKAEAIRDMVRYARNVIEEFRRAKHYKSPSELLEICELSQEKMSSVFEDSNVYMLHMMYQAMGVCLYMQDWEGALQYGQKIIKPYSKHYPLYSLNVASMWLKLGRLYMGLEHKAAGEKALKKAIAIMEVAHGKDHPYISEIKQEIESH

Chain of Fibroblast growth factor receptor 1 (P11362 22-822 limits assumed): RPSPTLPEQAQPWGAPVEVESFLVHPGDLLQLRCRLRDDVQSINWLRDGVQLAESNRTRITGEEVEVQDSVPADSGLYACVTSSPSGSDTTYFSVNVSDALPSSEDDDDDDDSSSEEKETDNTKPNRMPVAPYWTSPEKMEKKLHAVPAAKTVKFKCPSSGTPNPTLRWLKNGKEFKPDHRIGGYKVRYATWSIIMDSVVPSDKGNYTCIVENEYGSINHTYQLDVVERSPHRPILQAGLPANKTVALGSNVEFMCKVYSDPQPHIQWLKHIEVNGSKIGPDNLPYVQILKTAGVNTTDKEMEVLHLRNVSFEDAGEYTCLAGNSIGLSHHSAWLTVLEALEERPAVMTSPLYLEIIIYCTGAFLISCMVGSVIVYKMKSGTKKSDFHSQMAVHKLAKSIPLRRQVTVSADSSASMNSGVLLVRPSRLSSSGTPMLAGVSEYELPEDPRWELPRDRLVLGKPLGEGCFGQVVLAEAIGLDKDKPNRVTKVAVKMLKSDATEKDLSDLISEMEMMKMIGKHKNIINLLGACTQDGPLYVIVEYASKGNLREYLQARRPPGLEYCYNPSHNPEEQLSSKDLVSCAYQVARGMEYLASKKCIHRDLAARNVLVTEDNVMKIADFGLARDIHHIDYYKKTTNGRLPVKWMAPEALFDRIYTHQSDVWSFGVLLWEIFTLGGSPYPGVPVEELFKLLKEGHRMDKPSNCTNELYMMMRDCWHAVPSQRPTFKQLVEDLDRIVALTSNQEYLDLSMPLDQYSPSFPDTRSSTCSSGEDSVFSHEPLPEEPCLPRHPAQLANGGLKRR

With CCC(=O)N1CCN(c2ccc(-n3c(=O)ccc4cnc5ccc(-c6cnc7ccccc7c6)cc5c43)cc2C(F)(F)F)CC1 the % of control [1] was 96%.
With Nc1cnc(N2CCc3cc(S(=O)(=O)Nc4c(F)cc(Cl)cc4F)cc(N4CCCC4=O)c32)nc1 [TP-020n] the % of control [2] was 100% and the % of control [3] was 100%.
In the case of C=CC(=O)Nc1ccc(C(=O)Nc2[nH]nc3c2CN(C(=O)N[C@H](CN(C)C)c2ccccc2)C3(C)C)cc1, the % of engagement [4] is reported as 9.5%.
Work on CNC(=O)Nc1ccc(-c2nc(N3CC4CCC(C3)O4)c3cnn(C4CCC5(CC4)OCCO5)c3n2)cc1 yielded a % of inhibition [5] of 2%, a % of inhibition [6] of 1% and a % of inhibition [7] of 3%. For the same compound, the % of control [8] was 100%.
Work on CN(C)C/C=C/C(=O)Nc1ccc(C(=O)N2CCCC(Nc3ncc(Cl)c(-c4c[nH]c5ccccc45)n3)C2)cc1 (stereo unspecified) yielded a % of control [9] of 81% and a % of control [10] of 100%.
For CNCCN1CCC(c2cc(CN(C)C(=O)c3cccc(Oc4ccccc4)c3)ccn2)CC1, the % activity [11] was > 90%.
